Like-named read-outs stand apart in the source and are kept apart here.

For assay [1], the target named is T1, recombinant human HDAC-1 enzyme (rHDAC-1) (Homo sapiens, UniProt Q13547).
T1 construct: made in house; host or cells: Baculovirus insect cell expression system
As to the kind of experiment: Histone deacetylase inhibition, recombinant human HDAC-1. In kind it is biochemical. The note with it: cloned recombinant human HDAC-1, Baculovirus insect cell expression; read-out: rHDAC-1 IC50. Put shortly:
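Recombinant human HDAC-1 or pooled HDACs from H446 nuclear extracts were preincubated with compounds for 30 min at 4 °C before the reaction. Released [3H]-acetic acid was extracted with ethyl acetate after acid stop and counted by scintillation. IC50 was the concentration giving half-maximal inhibition from dose-response curves.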

In assay [2] the test system is acetylated histone H-4 in T24 human bladder cancer cells. The experiment in a line: Histone H4 acetylation in whole cells by immunoblots. It counts as cell-based. Here is the method:
T24 human bladder cancer cells growing in culture were incubated with HDAC inhibitors for 16 hours. Histones were extracted from the cells after the culture period as described by M. Yoshida et al. (J. Biol. Chem. 265(28): 17174-17179 (1990)). 20 μg of total histone protein was loaded onto SDS/PAGE and transferred to nitrocellulose membranes. Membranes were probed with polyclonal antibodies specific for acetylated histone H-4 (Upstate Biotech Inc.), followed by horse radish peroxidase conjugated secondary antibodies (Sigma). Enhanced Chemiluminescence (ECL) (Amersham) detection was performed using Kodak films (Eastman Kodak). Acetylated H-4 signal was quantified by densitometry.

The test system of assay [3] is histone deacetylase enzyme in nuclear extracts from H446 cells (pooled HDACs). The experiment in a line: Histone deacetylase inhibition, H446 nuclear extracts (pooled HDACs). In kind it is biochemical, human. The note with it: for IC50: H446 nuclear extract, [3H]-acetylated histone substrate; for pooled HDACs percent inhibition: percent inhibition at 20 μM (footnote). On the procedure:
HDAC inhibitors were screened against histone deacetylase enzyme in nuclear extracts prepared from the human small cell lung cancer cell line H446 (ATTC HTB-171) and against a cloned recombinant human HDAC-1 enzyme expressed and purified from a Baculovirus insect cell expression system.
For deacetylase assays, 20,000 cpm of the [^3H]-metabolically labeled acetylated histone substrate (M. Yoshida et al., J. Biol. Chem. 265(28): 17174-17179 (1990)) was incubated with 30 μg of H446 nuclear extract or an equivalent amount of the cloned recombinant hHDAC-1 for 10 minutes at 37° C. The reaction was stopped by adding acetic acid (0.04 M, final concentration) and HCl (250 mM, final concentration). The mixture was extracted with ethyl acetate and the released [^3H]-acetic acid was quantified by scintillation counting. For inhibition studies, the enzyme was preincubated with compounds at 4° C. for 30 minutes prior to initiation of the enzymatic assay. IC50 values for HDAC enzyme inhibitors were determined by performing dose response curves with individual compounds and determining the concentration of inhibitor producing fifty percent of the maximal inhibition.

Where [4] appears, read: T-24, read-out: EC50, concentration effective for reducing the acetylated H-4 signal by 50%, T24 cells, 16 hours incubation, immunoblot densitometry.

T1 sequence (Q13547 whole entry): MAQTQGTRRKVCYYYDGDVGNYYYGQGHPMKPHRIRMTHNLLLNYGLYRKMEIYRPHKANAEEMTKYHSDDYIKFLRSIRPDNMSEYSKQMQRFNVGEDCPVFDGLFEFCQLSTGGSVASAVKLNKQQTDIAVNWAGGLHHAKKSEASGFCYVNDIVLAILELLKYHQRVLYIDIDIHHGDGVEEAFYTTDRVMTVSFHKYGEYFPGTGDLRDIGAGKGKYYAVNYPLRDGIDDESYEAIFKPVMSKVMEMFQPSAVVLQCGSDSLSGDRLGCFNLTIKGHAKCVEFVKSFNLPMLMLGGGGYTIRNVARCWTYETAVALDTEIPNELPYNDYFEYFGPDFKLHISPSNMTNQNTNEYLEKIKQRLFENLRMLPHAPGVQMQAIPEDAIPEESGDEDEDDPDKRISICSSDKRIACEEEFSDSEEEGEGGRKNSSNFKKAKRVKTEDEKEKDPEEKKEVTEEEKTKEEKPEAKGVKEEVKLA

On to `Nc1ccccc1NC(=O)/C=C/C=C/CCC(=O)c1ccc(-c2ccccc2)cc1` [Compound 204, (E,E)-N-(2-Aminophenyl)-7-[(4-biphenyl)carbonyl]-2,4-heptadienamide], for which, in assay [1], the IC50 (in general, the concentration at which inhibition is half-maximal) came out at 5000 nM. For the same molecule, in assay [2] (setting [4]), the EC50 was 15000 nM.
As for `O=C(/C=C/C=C/CCC(=O)c1ccc(-c2ccccc2)cc1)NO` [Compound 205, (E,E)-N-Hydroxy-7-[(4-biphenyl)carbonyl]-2,4-heptadienamide], the IC50 in assay [1] is 40 nM. Moreover, in assay [2] (setting [4]), the EC50 was determined as 3000 nM.
Turning to `Nc1ccccc1NC(=O)CCCCCCC(=O)c1ccc(-c2ccccc2)nc1` [Compound 146, N-(2-Aminophenyl)-7-[(5-(2-phenyl)pyridyl)carbonyl]heptanamide], in assay [1], the IC50 is 2000 nM. For the same molecule, the EC50 in assay [2] (setting [4]) came to 5000 nM.
As to `CC(/C=C/C(=O)Nc1ccccc1N)=C\C(C)C(=O)c1ccc(N(C)C)cc1` (centres unmarked) [Compound 35, N-(2-Aminophenyl)-4-methyl-6-[4-(N,N-dimethylamino)benzoyl]-2,4-heptadienamide], the results for the IC50 in assay [1] and in assay [3] were 2000 nM and greater than 100000 nM, respectively. In addition, the EC50 in assay [2] (setting [4]) turned out to be 5000 nM.
Turning to `Cc1ccc2c(c1)C(=O)N(CCCCCC(=O)Nc1ccccc1N)C2=O` [Compound 243d, N-(2-Aminophenyl)-6-(5-methyl-N-phthaloyl)hexanamide], in assay [1], the IC50 stood at 3000 nM. The EC50 in assay [2] (setting [4]) amounted to 3000 nM.
For the molecule `O=C(CCCCCCC(=O)c1ccc(N2CCN(c3ccccc3)CC2)cc1)NO` [Compound 138g, N-Hydroxy-7-[4-(1-(4-phenylpiperazinyl))benzoyl]heptanamide], the results for the IC50 in assay [1] and in assay [3] were 6 nM and 51 nM, respectively. Moreover, in assay [2] (setting [4]), the EC50 worked out at 5000 nM.
For `COc1ccc(-c2ccc(C(=O)CCCCCCC(=O)NO)cc2)cc1` [Compound 120, N-Hydroxy-7-[4-(4-methoxyphenyl)benzoyl]heptanamide], in assay [1], the IC50 amounted to 2 nM. Besides, in assay [3], the “pooled HDACs percent inhibition” value was determined as 83%. Moreover, the EC50 in assay [2] (setting [4]) was determined as 10000 nM.
As to `O=C(CCCCCCC(=O)c1ccc(-c2ccccc2)nc1)NO` [Compound 145, N-Hydroxy-7-[(5-(2-phenyl)pyridyl)carbonyl]heptanamide], the IC50 in assay [1] was 8 nM. In addition, the EC50 in assay [2] (setting [4]) was found to be 10000 nM.
The like results for `Nc1ccccc1NC(=O)CCCCCN1C(=O)c2cccc3c(CN4CCCCC4)c(O)cc(c23)C1=O` [Compound 251c, N-(2-Aminophenyl)-6-[2-(5-hydroxy-1,3-dioxo-6-(1-methylpiperidynyl)-1H,3H-benzo[de]isoquinolinyl)]-hexanamide] were, in that order, 2000 nM and 1000 nM.
With `COc1ccc(-c2ccc(C(=O)CCCCCCC(=O)Nc3ccccc3N)cn2)cc1OC` [Compound 151, N-(2-Aminophenyl)-7-[5-(2-(3,4-dimethoxyphenyl)pyridyl)carbonyl]heptanamide], the IC50 in assay [1] stood at 4000 nM. For the same molecule, the EC50 in assay [2] (setting [4]) turned out to be 3000 nM.
With `O=C(CCCCCCOc1ccc(-c2ccccc2)cc1)NO` [Compound 235, N-Hydroxy-7-(4-biphenyloxy)heptanamide], the EC50 in assay [2] (T-24, 16 h, read-out: EC50, concentration effective for reducing the acetylated H-4 signal by 50%) was determined as 5000 nM.
Consider `Nc1ccccc1NC(=O)CCCCCCC(=O)c1cc2ccccc2s1` [Compound 164, N-(2-Aminophenyl)-7-[(2-benzo[b]thiophene)carbonyl]heptanamide], for which the IC50 in assay [1] is 2300 nM. The “pooled HDACs percent inhibition” value in assay [3] was 18%.
`O=C(CS)CCCCCCC(=O)c1ccccc1` [Compound 159e, 1-Mercapto-2,9-dioxo-9-phenyl-nonane]: the IC50 in assay [1] and in assay [3] was 50 nM in each case.
As to `O=C(CCCCCn1nnc2ccccc2c1=O)NO` [Compound 238b, N-Hydroxy-6-[3-(4-oxo-4H-benzo[d][1,2,3]triazinyl)]hexanamide], the IC50 in assay [1] amounted to 760 nM. Further, the “pooled HDACs percent inhibition @ 1 μM” value in assay [3] (@ 1 μM) was 20%@ 1 μM.
`Nc1ccccc1NC(=O)CCCCCCC(=NO)c1cccc(-c2ccccc2)c1` (mixture of isomers) [Compound 134, N-(2-Aminophenyl)-8-(E)-oximino-8-(3-biphenyl)octanamide]: in assay [1], the half-inhibitory concentration (IC50) worked out at 1000 nM. Also, the EC50 in assay [2] (setting [4]) was determined as 10000 nM.
